In brackets after ≈: the same amount, converted by molar mass.
Legend:
[1] = test system: NCI-H460 (non-small cell lung carcinoma cell); assay: MTT antiproliferative assay (cell growth %, GI50), NCI-H460; assay type: cell-based
Method in brief: (§1)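 Cells exposed to compounds in DMSO or vehicle for 48 hours; MTT (2 mg/mL) added before and after treatment for 2 hours, formazan dissolved in DMSO and OD570 read. GI50 from three determinations, reported as mean±SD.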

[2] = test system: CE81T (human esophageal carcinoma cell); assay: Preferential antiproliferative activity, CE81T; assay type: cell-based
Procedure: (§2) Determination of GI50 of compounds 13a, 13c, 14a, 14c, 15a, 16a was conducted substantially according to the method as described in the preceding section A entitled “Evaluation of antiproliferative activity”, except that the normal cell line MRC-5 was also utilized, and that camptothecin and daunorubicin were tested instead of compounds 1, 2, 3. The concentration of the respective test compound, which can reduce absorbance by 50% (compared with DMSO), is regarded as GI50, and can be determined via dose-response curves. Determination of GI50 was conducted thrice for each test compound. GI50 is expressed as mean±SD.
(§3) SI stands for selectivity index and was calculated by substituting GI50 into the following formula: D=E/F (2) where • D=SI • E=GI50 of the respective test compound for cells of the normal cell line • F=GI50 of the respective test compound for cells of the cancer cell line The experimental results are summarized in Table 4. […]

[3] = test system: MCF-7 (breast cancer cell); assay: MTT antiproliferative assay (cell growth %, GI50), MCF-7; assay type: cell-based
Method in brief: as §1

[4] = test system: CL1-5 (metastatic lung adenocarcinoma cell); assay: Preferential antiproliferative activity, CL1-5; assay type: cell-based
Procedure: as §2, §3

[5] = test system: MRC-5 (human lung fibroblast cell); assay: GI50 determination on normal cell line MRC-5; assay type: cell-based; conditions: MRC5, normal cell line, mean±SD, read-out: GI50 MRC-5
Procedure: Antiproliferative activities of the compounds of this invention were evaluated substantially according to the method as described in Tseng, C. […] The cells were treated with the test compounds, i.e., the compounds of this invention (in dimethylsulfoxide (DMSO)), or DMSO for 48 hours.
Before and after the treatment with the test compounds or DMSO, 3-(4,5-dimethylthiazol-2-yl)-2,5-diphenyltetrazolium bromide (MTT, 2 mg/mL, 100 μL) was added to each of the cultures, followed by cultivation for 2 hours. The resultant formazan was dissolved by the addition of DMSO. Absorbance at 570 nm (OD570) was measured using a microtiter plate reader (Dynex MRX-II).
Determination of GI50 was conducted thrice for each test compound. GI50 is expressed as mean±SD.

[6] = test system: SKHep-1 (hepatocellular carcinoma cell); assay: Preferential antiproliferative activity, SKHep; assay type: cell-based
Procedure: as §2, §3

[7] = test system: RCC 786-O (renal cell carcinoma cell); assay: Preferential antiproliferative activity, RCC 786-O; assay type: cell-based
Procedure: as §2, §3

[8] = test system: SAS (human oral squamous-cell carcinoma cell); assay: Preferential antiproliferative activity, SAS; assay type: cell-based
Procedure: as §2, §3

[9] = test system: PC-3 (human prostate cancer cell); assay: Preferential antiproliferative activity, PC-3; assay type: cell-based
Procedure: as §2, §3

[10] = test system: HeLa (human cervical epithelioid carcinoma cell); assay: Preferential antiproliferative activity, HeLa; assay type: cell-based
Procedure: as §2, §3

[11] = Determination of solubility in water; assay type: physicochemical
Procedure: Determination of solubility in water was conducted substantially according to the method as described in Vougogiannopoulou, K. et al. (2008), J. Med. Chem., 51:6421-6431. An excess amount of the respective test compound was added into water, followed by sonication for 5 minutes. The resultant mixture was stirred at ambient temperature (25±0.1° C.) overnight. Centrifugation at 4000 rpm and 25° C. was conducted for 5 minutes. Absorbance of the sample of the respective test compound was measured at 315-420 nm using a UV-VIS spectrophotometer (JASCO UV-Visible V570). For each test compound, a standard curve was generated by plotting concentrations of standard solutions and the corresponding absorbances. The absorbance of the sample of each test compound was then converted to solubility in water (μg/mL) using the corresponding standard curve.

NCI-H611 = assay: Preferential antiproliferative activity, NCI-H611; assay type: cell-based
Procedure: as §2, §3

In the case of `C/C(=N\OCCN)c1ccc(Nc2c3ccccc3nc3occc23)cc1` [Compound 13a, (E)-1-(4-(furo[2,3-b]quinolin-4-ylamino)phenyl)ethanone O-2-aminoethyl oxime], the “SI NCI-H460” value ([1]; GI50 MRC-5 / GI50 NCI-H460) is reported as 68.02, the activity at 4000 µg/mL ([1]; Homo sapiens, NCI-H460, 4 mg/ml, 48 hours, MTT) is reported as 33% and the activity at 20000 µg/mL ([1]; Homo sapiens, NCI-H460, 20 mg/ml, 48 hours, MTT) is reported as -1%. The GI50 ([1]; Homo sapiens, NCI-H460, mean±SD, read-out: GI50 NCI-H460) was 0.63 ± 0.03 µM, the GI50 ([2]; Homo sapiens, CE81T, mean±SD) was 16.9 ± 1.88 µM and the “SI CE81T” value ([2]; versus MRC-5) was 2.53. The “SI MCF-7” value ([3]; GI50 MRC-5 / GI50 MCF-7) was 4.59, the activity at 4000 µg/mL ([3]; Homo sapiens, MCF7, 4 mg/ml, 48 hours, MTT) was 66% and the activity at 20000 µg/mL ([3]; Homo sapiens, MCF7, 20 mg/ml, 48 hours, MTT) was -1%. For the same compound, the GI50 ([3]; Homo sapiens, MCF7, mean±SD, read-out: GI50 MCF-7) was 9.34 ± 0.92 µM, the GI50 ([4]; CL1-5, result based on a single trial) was 5.18 µM and the “SI CL1-5” value ([4]; versus MRC-5) was 8.27. For the same compound, the GI50 [5] was 42.9 ± 1.05 µM, the GI50 ([6]; Homo sapiens, SK-HEP1, mean±SD) was 13.1 ± 3.75 µM and the “SI SKHep” value ([6]; versus MRC-5) was 3.26. The GI50 ([7]; Homo sapiens, 786-0, mean±SD) was 24 ± 2 µM, the “SI RCC 786-O” value ([7]; versus MRC-5) was 1.77 and the GI50 ([8]; Homo sapiens, mean±SD) was 15.5 ± 2.6 µM. For the same compound, the “SI SAS” value ([8]; versus MRC-5) was 2.76, the GI50 ([9]; Homo sapiens, mean±SD) was 11.8 ± 0.49 µM and the “SI PC-3” value ([9]; versus MRC-5) was 3.62. The GI50 ([10]; Homo sapiens, HeLa, mean±SD) was 8.31 ± 0.6 µM, the “SI HeLa” value ([10]; versus MRC-5) was 5.16 and the Solubility in water ([11]; 25±0.1° C., stirred overnight, UV-VIS) was 63 µg/mL (≈ 175 µM). The “Solubility in water relative to compound 2” value ([11]; fold versus compound 2) was “about six times higher”, the GI50 (NCI-H611; mean±SD) was 0.98 ± 0.27 µM and the “SI NCI-H611” value (NCI-H611; versus MRC-5) was 43.72.

Source: patent US8952033B2, “4-anilinofuro[2,3-b]quinoline derivatives, their preparation processes, and pharmaceutical compositions comprising the same” (Kaohsiung Medical University, priority 2011, dated 2015)
